These are literature values, as cited in patent publication US20170333565A1, “TLR9 TARGETED CYTOTOXIC AGENTS” (H. LEE MOFFITT CANCER CENTER AND RESEARCH INSTITUTE, INC., priority 2014, published 2017).

For the series, the system named is myelodysplastic syndromes (MDS). The settings on record: cited from earlier work.

In the case of `Nc1cccc2c1CN(C1CCC(=O)NC1=O)C2=O` (centres unmarked) [LEN, lenalidomide], the clinical response result (majority of patients with a chromosome 5q deletion (del5q)) was “sustained red blood cell transfusion independence”. Also, under “patients with del5q MDS”, the “median duration of response” value is on record as 2.5 years.
